Laboratory results from paper PMC11671014 (PLOS Pathogens, 2024).
Values joined by “and” are separate entries in the source; they are usually repeats but may differ in a detail not shown here. Identical values can stand only once.

Legend:
PfTyrRS [1] = molecular target: T1, PfTyrRS (Plasmodium falciparum, UniProt Q8IAR7); assay: ATP consumption by PfTyrRS (Kinase Glo); assay type: biochemical; conditions: Inhibition of PfTyrRS (Kinase Glo) IC50, PfTyrRS 25 nM, ATP 10 μM, tyrosine 200 μM, cognate tRNA^Tyr 4.8 μM, 37°C 1 h
T1 sequence (Q8IAR7 entry or part of it): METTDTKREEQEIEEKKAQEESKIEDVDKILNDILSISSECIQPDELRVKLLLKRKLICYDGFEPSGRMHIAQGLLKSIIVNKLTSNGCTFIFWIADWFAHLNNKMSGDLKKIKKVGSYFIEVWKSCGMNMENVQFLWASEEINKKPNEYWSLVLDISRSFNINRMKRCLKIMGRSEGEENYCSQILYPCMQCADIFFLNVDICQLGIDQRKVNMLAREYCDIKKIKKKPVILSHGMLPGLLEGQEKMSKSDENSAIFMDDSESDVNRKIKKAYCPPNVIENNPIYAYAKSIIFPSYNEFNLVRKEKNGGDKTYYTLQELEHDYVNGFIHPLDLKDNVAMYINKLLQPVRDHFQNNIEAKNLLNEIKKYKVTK
Experimental: Consumption of ATP was measured using a luciferase-based assay as per the manufacturer’s instructions (Kinase-Glo Luminescent Kinase Assay, Promega).

PfTyrRS [2] = molecular target: T1, PfTyrRS; assay: Differential scanning fluorimetry (DSF) of PfTyrRS; assay type: binding
Experimental: The effect on ML471 and analogues on the thermal stability of TyrRS enzymes was assayed as previously described. […] SYPRO Orange (Sigma-Aldrich; 5,000X concentrate in DMSO) was added to the reaction mixture at a final concentration of 5X. 25 μL of the sample was added into each well of a 96-well qPCR plate (Applied Biosystems). The plate was sealed and analysed using StepOnePlus Real-Time PCR system (Applied Biosystems). The samples were heated from 20°C to 90°C with a 1% continuous gradient. The thermal unfolding curve was plotted as the first derivative curve of the raw fluorescence values. The melting temperature (Tm), defined as the peak of the first derivative curve, was used to assess the thermal stability of protein-ligand complexes.

HCT116 = conditions: read-out: HCT116 IC50_72h; 72 h; ref [16]; cited from earlier work
[3] = tested on: P. falciparum (3D7, ring stage) cultures; conditions: read-out: P. falciparum 72-h IC50 (3D7); 3D7, 72 h exposure; ref [16]; cited from earlier work

Nc1ncnc2c1ncn2[C@@H]1O[C@H](COS(N)(=O)=O)[C@@H](O)[C@H]1O [AMS, adenosine 5’-monosulfamate, reference compound]
IC50 (PfTyrRS [1]): 51700 nM and 52000 nM | Kd (PfTyrRS [2]): 1.3 nM | ΔTm at 50 µM (PfTyrRS [2]; 2 h, read-out: PfTyrRS binding (DSF) Delta Tm): 13.6 ± 0.7 °C | PfTyrRS Tm (PfTyrRS [2]; with sulfamate, ATP, tyrosine and tRNA, apo 49.9 ± 0.6): 63.5 ± 0.7 °C | IC50 (HCT116): 26 nM | IC50 [3]: 1.8 ± 0.6 nM
